The text below walks through data of patent US20040191842A1, “Chemopreventive and therapeutic aspects of polyphenolic compositions and assays” (Medical College of Georgia Research Institute, Inc., priority 2002, published 2004).

What all share (format): cell-based, human
The subject of experiment [1] is NS-SV-AC cells. As to the kind of experiment: Mitochondrial SDH activity in immortalized salivary glandular cells. Particulars: NS-SV-AC and two other immortalized salivary glandular cell lines.
Description: MTT [3-(4,5-dimethylthiazol-2-yl)-2,5-diphenyl tetrazolium bromide] assay. […] Cells (1.5×10^4 cells/well) were seeded in a 96-well microplate and treated with the indicated doses of EGCG for 24 hours. After the treatment, the cells in each well were washed with 200 μl of phosphate-buffered saline (PBS), incubated with 100 μl of 2% MTT in a solution of 0.05 M Tris, 0.5 mM MgCl2, 2.5 mM CoCl2, and 0.25 M disodiumn succinate as substrate (Sigma) at 37° C. for 30 minutes. Cells were fixed in situ by the addition of 100 μl of 4% formalin in 0.2 M Tris (pH 7.7), and after a 5 minute incubation at room temperature liquid was removed and the wells were allowed to dry. Each well was rinsed with 200 μl water and cells were solubilized by the addition of 100 μl of 6.35% 0.1 N NaOH in DMSO. The colored formazan product was measured by a Thermo MAX micro plate reader (Molecular Devices Corp., Sunnyvale, Calif.) at a wavelength of 562 nm. Experiments were repeated three times with triplicate samples for each experiment.
Experiment [2] concerns transglutaminase. Description: Transglutaminase activity assay, exponentially growing keratinocytes. Conditions: 50 μM or 100 μM EGCG. On the procedure:
Transglutaminase activity assay. Normal human epidermal keratinocytes in early passages (2-3) were allowed to grow in 6-well tissue culture plates prior to EGCG exposure. The cells were scraped in homogenization buffer (0.1 M Tris/acetate, pH 8.5, containing 0.2 mM EDTA, 20 μM AEBSF, 2 μg/mL aprotinin, 2 μM leupeptin and 1 μM pepstatin A), collected by centrifugation and subjected to one freeze-thaw cycle prior to lysis by sonication. Unlysed cells were pelleted by centrifugation and aliquots of the supernatant collected for the determination of transglutaminase activity and protein concentration. Protein quantities were determined using the BioRad Protein Assay with bovine serum albumin as standard. Transglutaminase activity was measured as the incorporation of [^3 H] putrescine into dimethylated casein, as described previously (Jung et al., J Invest Dermatol, 1998; 110:318-23).

In experiment [3] the test system is catalase. Description: Catalase activity assay in cell lysates. On the procedure:
Assays for SOD and catalase activities. Cells (1×10^6 cells/well) were incubated with or without EGCG (50 μM) in FilterCap 50 ml flasks (Nagel Nunc International, Rochester, N.Y.) for 30 minutes at 37° C. After the incubation, cells were harvested and disrupted in 100 μl of 10 mM Tris-HCl (pH 7.4) containing 0.1%(v/v) Triton X-100, 10 μg/ml leupeptin, 10 μg/ml pepstatin A and 100 mM phenylmethylsulfonyl fluoride by three cycles of freezing/thawing. After centrifugation at 17,000×g for 20 minutes at 4° C., the supernatants were used for SOD and catalase assays using the SOD Assay Kit-WST (Dojindo Molecular Technologies, Inc., Gaithersburg, Md.) and the AMPLEX Red Catalase Assay Kit (Molecular Probes), respectively. The activities of SOD and catalase were calibrated using a standard curve prepared with purified human SOD and catalase. The activities of SOD and catalase were expressed as units (U)/10^6 cells.
Assays for SOD and catalase activities. Cells (10^5 cells/well) were incubated with or without EGCG (50 μM) in 24-well culture plates for desirable time periods at 37° C. After the incubation, cells were harvested and disrupted in 100 μl of 10 mM Tris-HCl (pH 7.4) containing 0.1% (v/v) Triton ×-100, 10 μg/ml leupeptin, 10 μg/ml pepstatin A and 100 mM PMSF by three cycles of freezing/thawing. After centrifugation at 17,000×g for 20 minutes at 4° C., the supernatants were used for SOD and catalase assays using the SOD Assay Kit-WST (Molecular Technologies, Inc., Gaithersburg, Md.) and the Amplex Red Catalase Assay Kit (Molecular Probes), respectively. The activities of SOD and catalase were calibrated using a standard curve prepared with purified human SOD and catalase. The activities of SOD and catalase were expressed as units (U)/10^6 cells.

For experiment [4], the system named is caspase 14 and p21. As to the kind of experiment: Caspase 14 and p21 expression in OSC2 cells. Particulars: EGCG. On the procedure:
To identify additional factors those suppress EGCG -induced apoptosis and facilitate cell differentiation in NHEK, exponentially growing NHEK (Cambrex, Baltimore, Md.) were exposed to 100 μM EGCG for 0, 2, 6 and 24 hours, prior to total RNA isolation using the Qiagen RNeasy mini kit (Valencia, Calif.), which was followed by RT-PCR labeling and hybridization with the Human Apoptosis Macroarray membrane (Sigma-Genosys, The Woodlands, Tex.). Total cell lysates also were collected following a variety of EGCG treatments. The protein levels for caspase 14 and p21 were determined by immuno-blotting using antibodies specific for caspase 14 and p21 (Santa Cruz Biotechnology, Santa Cruz, Calif.).
Normal human epidermal keratinocytes (NHEK; Cambrex), and oral squamous cell carcinoma (OSC2) cells, originally from gingival tissue, were compared. Exponentially growing cells were exposed to 50 or 100 μM EGCG for 0 hours, 2 hours, 6 hours or 24 hours. Cells were harvested for total RNA, which was examined by apoptosis macroarrays (Sigma Genosys), followed by phosphorimagery and data analysis (GeneSpring). Protein production of expressed genes was confirmed by Western blotting of whole cell lysates.

For experiment [5], the system named is p57 (KIP2). Description: Western blot of p57 in OSC2 oral carcinoma cells. On the procedure:
Cell treatments. For 24 hours treatments, exponentially growing cells with 40% confluency (to minimize differentiation and spontaneous apoptosis) were either maintained in 50 μM EGCG (2.29 mg/100 ml) or 0.2 mg/ml of GTPPs in tissue culture flasks (25 cm^2). Control flasks contained cells without any treatment. To test whether BaP or NNK interfere with the induction of p57, the human keratinocytes were treated with 0.12 μM BaP, or 10 μM NNK, either alone or in combination with 50 μM EGCG. To examine the time course of p57 induction, cells were treated with 50 μM EGCG and harvested for Western analysis at 30 minutes, 2 hours, 6 hours, and 24 hours. The human keratinocytes were treated when the cell density reached 85-90% confluency (to mimic the epithelium).
In a parallel series of experiments, treatment with EGCG was performed with 30 micrograms per milliliter (μg/ml) cycloheximide added to the keratinocyte media 30 minutes prior to the addition of EGCG. The dose-response experiments were performed using EGCG concentrations at 30, 50 100, and 200 μM in the culture media for 24 hours.
Western blot analysis. […] The concentration of protein in each sample was determined using the BioRad DC Protein Assay and spectrophotometry. […]
For orientation: Immunoblotting shows a protein as a band on a membrane.

On to `O=C(O[C@@H]1Cc2c(O)cc(O)cc2O[C@@H]1c1cc(O)c(O)c(O)c1)c1cc(O)c(O)c(O)c1` [EGCG, (−)-epigallocatechin-3-gallate], for which the “tolerance, mitochondrial SDH activity” value in experiment [1] is on record as “tolerant to high concentrations of EGCG”. Also, the “transglutaminase activity vs control” value in experiment [2] was “significantly higher activity”. For the same compound, in experiment [3] (50 μM EGCG, 30 minutes, NHEK, OSC-2, OSC-4), the catalase activity entry is on record as “Significant changes in catalase activity was not observed”. For the same compound, in experiment [3] (EGCG, 24-hour treatment period), the “catalase activity in OSC-4 cells” value is given as “slight decrease”. For the same compound, the “catalase and total SOD enzymatic activity levels” value in experiment [3] (EGCG, 24-hour treatment period, NHEK, OSC-2, OSC-4) was “had no effect on the enzymatic activity levels”. For the same compound, the “caspase 14 and p21 levels” value in experiment [4] (identical conditions to NHEK) is reported as “failed to show increased caspase 14 or decreased p21”. Further, the “p21 mRNA elevated” value in experiment [4] (within 2 hours) came to 3 fold. Also, the p57 levels entry in experiment [5] (50 μM EGCG or 0.2 mg/ml GTPPs, 24 h) is given as “remained unchanged”. For the same compound, the “p57 expression, time course and dose response” value in experiment [5] (EGCG at any time point or concentration) is recorded as “failed to elevate p57 expression”.
